According to patent US9023789B2, “Amylin analogs and pharmaceutical compositions thereof” (Novo Nordisk A/S, priority 2012, dated 2015):
Numbered stars: 1 amine (or outer) side, 2 acyl side, 3 side chain; on linkers, the order of the positions; unused ones are H or OH. Bridge positions count the residues as written; N and C are the ends. Peptide text beside a SMILES is read from it. * marks the point of attachment. C20 diacid = O=C(O)CCCCCCCCCCCCCCCCCCC(=O)*; γGlu = O=C(O)[C@H](CCC(=O)[*:2])N[*:1]

Key:
[1] = ASSAY (III) ThT fibrillation assay for physical stability; format: physicochemical
Method in brief: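 Physical stability scored by ThT fluorescence (444 nm excitation, 485 nm emission) tracked every 20 min during 37 °C incubation with 960 rpm shaking, ThT at 1 μM final. Values are replicate means with SD at chosen times; HPLC against pramlintide standard gives initial and post-assay soluble concentrations.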

[2] = target: T1, rat amylin receptor (rat calcitonin receptor + rat RAMP 3) (Rattus norvegicus, UniProt P32214+Q9JJ73); experiment: ASSAY (VI) binding to the rat amylin receptor; conditions: for IC50: binding to rat amylin receptor, read-out: rAmylin-R bind IC50
T1 construct: expressed in transfected cells; host or cells: BHK tk'ts 13 (transient, FuGENE 6), membranes
T1 sequence (P32214 25-479 isoform P32214-2 limits assumed): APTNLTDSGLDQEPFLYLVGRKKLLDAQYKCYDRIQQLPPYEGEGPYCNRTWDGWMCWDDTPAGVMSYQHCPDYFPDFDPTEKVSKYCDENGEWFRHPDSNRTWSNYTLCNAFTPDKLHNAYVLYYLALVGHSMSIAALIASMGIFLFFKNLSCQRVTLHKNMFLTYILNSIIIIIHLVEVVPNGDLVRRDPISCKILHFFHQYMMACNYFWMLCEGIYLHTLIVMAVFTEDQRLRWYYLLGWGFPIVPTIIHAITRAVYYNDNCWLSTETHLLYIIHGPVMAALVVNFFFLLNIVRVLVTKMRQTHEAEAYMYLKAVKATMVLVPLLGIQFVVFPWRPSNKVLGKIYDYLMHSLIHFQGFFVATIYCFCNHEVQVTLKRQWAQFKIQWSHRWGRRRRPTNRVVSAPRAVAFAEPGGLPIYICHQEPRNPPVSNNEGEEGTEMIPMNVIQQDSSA
T1 sequence (Q9JJ73 23-147 partner): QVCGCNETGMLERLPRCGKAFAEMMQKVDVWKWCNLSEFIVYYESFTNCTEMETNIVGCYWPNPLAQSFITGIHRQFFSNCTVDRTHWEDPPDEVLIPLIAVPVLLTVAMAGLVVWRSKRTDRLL
Method in brief: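 Membranes for this rat amylin receptor binding assay came from BHK tk′ts 13 cells. The cells were transiently transfected with rat calcitonin receptor using the FuGENE® 6 reagent from Roche, as the manufacturer recommends. The cells were collected approximately 48 hours after transfection, and membranes were then prepared.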

[3] = Table 7, rat binding selectivity, rCTR IC50 / rAmylin-R IC50
[4] = Table 7a (preferred compounds), rat binding selectivity, rCTR IC50 / rAmylin-R IC50

| Compound | ThT pH 4.0 lag time (h) [1] | IC50 ([2]; Table 7) | Ratio rCT/rAmylin binding [2, 3] | Ratio rCT/rAmylin binding [2, 4] | Ratio rCT/rAmylin binding ([2]; ratio of rCTR bind IC50 to rAmylin-R bind IC50) |
| --- | --- | --- | --- | --- | --- |
| CC[C@H](C)[C@H](NC(=O)[C@H](C)NC(=O)CNC(=O)[C@H](Cc1ccccc1)NC(=O)[C@H](CC(N)=O)NC(=O)[C@@H]1CCCN1C(=O)[C@H](CO)NC(=O)[C@H](CO)NC(=O)[C@H](Cc1c[nH]cn1)NC(=O)[C@H](CCCNC(=N)N)NC(=O)[C@H](CC(C)C)NC(=O)[C@H](Cc1ccccc1)NC(=O)[C@H](CCC(=O)O)NC(=O)[C@H](C)NC(=O)[C@H](CC(C)C)NC(=O)[C@H](CCCNC(=N)N)NC(=O)[C@H](CCC(N)=O)NC(=O)[C@@H](NC(=O)[C@H](C)NC(=O)[C@@H]1CSSC[C@H](NC(=O)[C@H](CCCCN)NC(=O)CC[C@H](NC(=O)CCCCCCCCCCCCCCCCCCC(=O)O)C(=O)O)C(=O)N[C@@H](CC(N)=O)C(=O)N[C@@H]([C@@H](C)O)C(=O)N[C@@H](C)C(=O)N[C@@H]([C@@H](C)O)C(=O)N1)[C@@H](C)O)C(=O)N[C@@H](CC(C)C)C(=O)N1CCC[C@H]1C(=O)N[C@@H](CO)C(=O)N[C@H](C(=O)N[C@@H](CC(N)=O)C(=O)N[C@H](C(=O)NCC(=O)N[C@@H](CO)C(=O)N[C@@H](CCC(=O)O)C(=O)N[C@H](C(=O)N[C@@H](Cc1ccc(O)cc1)C(N)=O)[C@@H](C)O)C(C)C)[C@@H](C)O [Example 33] ({C20 diacid-γGlu}-KCNTATCATQRLAEFLRHSSPNFGAILPSTNVGSETY-NH2; disulfide 2-7) | 9 h | 2.29 nM | 12.6 | 12.6 | – |
| CC[C@H](C)[C@H](NC(=O)[C@H](C)NC(=O)CNC(=O)[C@H](Cc1ccccc1)NC(=O)[C@H](CC(N)=O)NC(=O)[C@@H]1CCCN1C(=O)[C@H](CO)NC(=O)[C@H](CO)NC(=O)[C@H](Cc1c[nH]cn1)NC(=O)[C@H](CCCNC(=N)N)NC(=O)[C@H](CC(C)C)NC(=O)[C@H](Cc1ccccc1)NC(=O)[C@H](CC(N)=O)NC(=O)[C@H](C)NC(=O)[C@H](CC(C)C)NC(=O)[C@H](CCCNC(=N)N)NC(=O)[C@H](CCC(N)=O)NC(=O)[C@@H](NC(=O)[C@H](C)NC(=O)[C@@H]1CSSC[C@H](NC(=O)[C@H](CCCCN)NC(=O)CC[C@H](NC(=O)CCCCCCCCCCCCCCCCCCC(=O)O)C(=O)O)C(=O)N[C@@H](CC(N)=O)C(=O)N[C@@H]([C@@H](C)O)C(=O)N[C@@H](C)C(=O)N[C@@H]([C@@H](C)O)C(=O)N1)[C@@H](C)O)C(=O)N1CCC[C@H]1C(=O)N[C@@H](CO)C(=O)N[C@@H](CO)C(=O)N[C@H](C(=O)N[C@@H](CC(N)=O)C(=O)N[C@H](C(=O)NCC(=O)N[C@@H](CO)C(=O)N[C@@H](CCCCN)C(=O)N[C@H](C(=O)N[C@@H](Cc1ccc(O)cc1)C(N)=O)[C@@H](C)O)C(C)C)[C@@H](C)O [Example 34] | 35 h | 1.72 nM | 52.0 | 52.0 | 52.0 |
